Source: patent US20240238417A1, “METHODS OF PRODUCING TUMOR VACCINES AND USES THEREOF” (priority 2021, published 2024)

Experiments:
PC-3 cells = assay: XTT viability of PC-3 cells after direct gas exposure in 96-well plate; assay type: cell-based
Protocol: (§1) In vitro systems: One system involves a direct exposure of cancer cells to gNO in 96-well plate. Gaseous NO at 150 ppm-50,000 ppm was delivered at 0.3 LPM for 10 seconds—3 minutes. In another system, cancer cells were exposed to gNO in a box made of acrylic glass. Gaseous NO at 10,000-50,000 ppm was delivered at 0.9 LPM for 10 seconds—15 minutes.
(§2) The exposure of the cancer cells to gNO was done after removing the cell culture medium.
(§3) Immediately after gas exposure, cell culture medium was added, and the cells were incubated at a 37° C. and 5% CO2 incubator over-night. To test cell viability, XTT assay and Annexin V-Propidium Iodide assays were performed, according to known protocols.
PC-3 cells were prepared in RPMI medium and suspended in four 96-well plates. The wells were exposed to the gas by a tubing that was directed at each well for 10, 60 or 180 seconds. The diameter of the gas tubing used was about 25% of the diameter of each well. Three wells were used for each gas and exposure time. The plates were placed in a 5% CO2, 37° C. incubator for 15-18 hours and the viability of the cells was tested by XTT assay.

4T1 cells = assay: XTT viability of 4T1 cells after direct gas exposure in 96-well plate; assay type: cell-based, mouse
From the text: Tumor celllines: The mouse colon carcinoma cell line, CT26WT, was cloned from CT26, an N-nitroso-N-methylurethane-induced, undifferentiated colon carcinoma cell line. The mouse mammary tumor cell line, 4T1, is a 6-thioguanine resistant cell line. When injected into BALB/c mice, 4T1 spontaneously produces highly metastatic tumors that can metastasize to the lung, liver, lymph nodes and brain while the primary tumor is growing in situ. […] Panc 02.03 is a pancreatic adenocarcinoma epithelial cell line derived in 1995 from a primary tumor removed from the head-of-the-pancreas of […] with pancreatic adenocarcinoma. CT26, 4T1 and Panc 02.03 cell lines were grown in RPMI based media (ATCC 30-2001) supplemented with fetal bovine serum and pen-strep (both from Biological Industries). The LLC1/LU2 cell line was grown in DMEM based media (ATCC 30-2002) supplemented with fetal bovine serum and pen-strep (Biological industries). The B16.F10 cell lines was grown in DMEM based media (ATCC 30-2002) supplemented with fetal bovine serum and pen-strep (Biologicalindustries).
as §1, §2, §3
The effect of continuous gaseous nitric oxide (gNO) at 150 ppm, 4,000 ppm, 10,000 ppm, or 50,000 ppm, compared to air (control), on the survival of 4T1 cancer cell line was tested. 4T1 cells were prepared in RPMI medium and suspended in six 96-well plates. […]

B16.F10 cells = assay: XTT viability of B16.F10 cells after gas exposure in chamber; assay type: cell-based; conditions: 10,000 ppm-25,000 ppm gNO for 3-15 minutes
Protocol: as §1, §2, §3
B16.F10 cells were prepared in DMEM medium and suspended in 96-well plates. The plates were placed inside an approx. 2 liter exposure chamber. The plates were exposed to the gas by filling the chamber with gNO for 10 seconds, or 1, 3, 9 or 15 minutes. After exposure, the plates were placed in a 5% CO2, 37° C. incubator for an overnight incubation and the viability of the cells was tested by XTT assay.

[N]=O [gNO, nitric oxide]
viability of PC-3 cells (PC-3 cells; 4,000 ppm and 10,000 ppm gNO for 180 seconds): 43-48%
viability at 4000 ppm (PC-3 cells; Homo sapiens, PC-3, 1 min, 4,000 ppm, 10,000 ppm and 50,000 ppm gNO for 1 minute): 44 to 55%
viability at 4000 ppm (PC-3 cells; Homo sapiens, PC-3, 4,000 ppm, 10,000 ppm and 50,000 ppm gNO for 10 seconds): 56 to 72%
viability at 50000 ppm (PC-3 cells; Homo sapiens, PC-3, 50,000 ppm gNO for 180 seconds): ~17%
4T1 cells remain viable (4T1 cells; 4,000-10,000 ppm gNO for 1 minute): About 60%
viability of 4T1 cells (4T1 cells; 10,000 or 50,000 ppm gNO for 180 seconds): 1-3%
4T1 cells remained viable (4T1 cells; 10,000 ppm or 50,000 ppm gNO for 10 seconds): less than 80%
viability of B16.F10 cells (B16.F10 cells): less than 5%
